Test results as given in patent US4329460A, “Uracil derivatives and production thereof” (Takeda Chemical Industries, Ltd., priority 1976, dated 1982).
≈ marks a conversion by molar mass, not a printed value.

Assays:
[1] = tested on: leukemia P 388; experiment: life-prolonging effect upon leukemia P 388 in mice; format: in vivo, BDF1 mice; details: intraperitoneal, median survival time treated/control
Experimental: (1) The procedure of a test on the life-prolonging effect upon leukemia P 388 in mice
One tenth ml of diluted ascitic fluid containing 1×10^5 cells was implanted in BDF1 mice weighing 18 to 25 g. A suspension of the test-compound is injected intraperitoneally at a constant rate of volume of 0.1 ml/10 g body weight. As the detailed experimental method, the Protocols for Screening Chemical Agents (Geran, R. I., Greenberg, N. H., Macdonald, M. M., Schumacher, A. M., and Abbott, B. J.: Protocols for Screening Chemical Agents and Natural Products against Animal Tumors and Other Biological Systems. Cancer Chemotherapy Rept., 3 (Part 3) 7, 1972) is adopted.
The results are recorded in compliance to the T/C % value calculated on the basis of the median survival time of treated to control animals.

[2] = tested on: KB cells; experiment: Inhibition of KB cell multiplication; format: cell-based; details: Homo sapiens, 72 h, cell count on 4th day after seeding, read-out: ED50, inhibition of cell growth
Experimental: (1) Inhibition of KB cell multiplication
2×10^4 cells were suspended in 1 ml of Eagle's Minimal Essential Medium (MEM)+10% fetal calf serum (MEM.10 Fcs) and seeded in a glass dish (d=1.8 cm) containing a round coverslip (d=1.5 cm).
On the first day after seeding, three coverslips (per test group) were taken out and transferred to a single glass dish (d=4.5 cm) holding 5 ml of MEM.10 Fcs containing a verying concentration of the compound. On the 4th day after seeding, the number of cells per coverslip (3 slips for each concentration level) was determined with a Coulter counter. The result was expressed in the concentration of the drug giving a cell count of 50% (ED50) with the average number of cells for the control (not medicated) group on the 4th day being taken as 100%.

[3] = tested on: BAV3-infected C34 cells; experiment: Inhibition of the induction of cell multiplication in BAV3-infected C34 cells; format: cell-based; details: Mus musculus, 96 h, (V-M) difference on 6th day after seeding, read-out: ED50, inhibition of cell growth
Experimental: (2) Inhibition of the induction of cell multiplication in BAV3-infected C34 cells
1×10^5 cells were suspended in 1 ml of Eagle's MEM+10% fetal calf serum (MEM.10 Fcs) and seeded in a glass dish (d=1.8 cm) containing a round coverslip (d=1.5 cm).
On the 2nd day after seeding, infection (37° C., 120 min.) (mock-infection or virus infection; in the case of the latter, multiplicity of infection per cell=100-200 PFU/cell) was carried out. After this operation, one test group (3 coverslips) was taken out and transferred to a glass dish (d=4.5 cm) holding 5 ml of MEM.2 Fcs containing each concentration of compound.
On the 6th day after seeding, the number of cells per coverslip was determined with a Coulter counter. For each experimental group, the difference in all members between virus-infected cells (V) and mock-infected cells (M) was calculated. The result was expressed in the concentration of the drug giving a (V-M) value of 50% (ED50) for the control (not medicated) group as 100%.

[4] = tested on: AC cells; experiment: Inhibition of AC cell multiplication; format: cell-based; details: Rattus norvegicus, 72 h, cell count on 3rd day following replacement of medium, read-out: ED50, inhibition of cell growth
Experimental: (3) Inhibition of Ac cell multiplication
1×10^5 AC cells (2 ml of Eagle's MEM, with 10% fetal calf serum were seeded in a Falcon dish (in. diam. 3.5 cm). On the 24th hour, replacement was made with the above culture medium containing a varying concentration of drug. The number of cells was determined on the 3rd day following the replacement of medium. The pharmacologic effect was expressed in ED50 (the concentration of the drug giving a cell count of 50% for the treated group with the number of cells for the control group being taken as 100%.

SMILES	T/C(%) ([1]; 50 mg/kg/day)	T/C(%) ([1]; 100 mg/kg/day)	T/C(%) ([1]; 200 mg/kg/day)	IC50 [2] [µg/mL]	IC50 [3] [µg/mL]	IC50 [4] [µg/mL]
CCOC(=O)C1(F)C(=O)NC(=O)NC1OCC (centres unmarked) [ethyl 5-fluoro-6-ethoxy-1,2,3,4,5,6-hexahydro-2,4-dioxopyrimidine-5-carboxylate]	130	143	160	2.8 (≈ 11.3 µM)	0.023 (≈ 0.0927 µM)	
COC(=O)C1(F)C(=O)NC(=O)NC1OC (centres unmarked) [methyl 5-fluoro-6-methoxy-1,2,3,4,5,6-hexahydro-2,4-dioxopyrimidine-5-carboxylate]	208	217	243	3 (≈ 13.6 µM)	0.023 (≈ 0.104 µM)	0.12 (≈ 0.545 µM)
